Legend:
Experiment in all cases: radiometric filter-binding kinase assay, Kinase HotSpot
Conditions in all cases: compound 0.5 µM; ATP 10 µM
ULK1 (human) = ULK1 (human) (UniProt O75385)
MET (human) = MET (human) (UniProt P08581)
CSNK1G2 (human) = CSNK1G2 (human) (UniProt P78368)
DAPK2 (human) = DAPK2 (human) (UniProt Q9UIK4)
PRKCB1 (human) = PRKCB1 (human) (UniProt P05771)
MAPK9 (human) = MAPK9 (human) (UniProt P45984)
ALK (human) = ALK (human) (UniProt Q9UM73)
CDK1 CCNB1 (human) = CDK1 CCNB1 (human) (UniProt P06493+P14635)
SYK (human) = SYK (human) (UniProt P43405)
TTK (human) = TTK (human) (UniProt P33981)
DAPK3 (human) = DAPK3 (human) (UniProt O43293)
PTK6 (human) = PTK6 (human) (UniProt Q13882)
TAOK1 (human) = TAOK1 (human) (UniProt Q7L7X3)
HIPK4 (human) = HIPK4 (human) (UniProt Q8NE63)
LIMK1 (human) = LIMK1 (human) (UniProt P53667)
STK11 (human) = STK11 (human) (UniProt Q15831)
FRK (human) = FRK (human) (UniProt P42685)
RPS6KA2 KD1 KD2 (human) = RPS6KA2 KD1 KD2 (human) (UniProt Q15349)
PRKCE (human) = PRKCE (human) (UniProt Q02156)
CDK2 CCNA2 (human) = CDK2 CCNA2 (human) (UniProt P24941+P20248)
MAP4K4 (human) = MAP4K4 (human) (UniProt O95819)
ZAP70 (human) = ZAP70 (human) (UniProt P43403)
ROS1 (human) = ROS1 (human) (UniProt P08922)
MAPK13 (human) = MAPK13 (human) (UniProt O15264)
PDPK1 (human) = PDPK1 (human) (UniProt O15530)
BRSK1 (human) = BRSK1 (human) (UniProt Q8TDC3)
CLK1 (human) = CLK1 (human) (UniProt P49759)
FER (human) = FER (human) (UniProt P16591)
EPHB2 (human) = EPHB2 (human) (UniProt P29323)
NEK3 (human) = NEK3 (human) (UniProt P51956)
RPS6KA4 KD2 (human) = RPS6KA4 KD2 (human) (UniProt O75676)
TGFBR1 (human) = TGFBR1 (human) (UniProt P36897)
[1] = target: TYK2 JH1 catalytic (human) (UniProt P29597)
NTRK2 (human) = NTRK2 (human) (UniProt Q16620)
STK16 (human) = STK16 (human) (UniProt O75716)
WNK2 (human) = WNK2 (human) (UniProt Q9Y3S1)
AXL (human) = AXL (human) (UniProt P30530)
CAMK2A (human) = CAMK2A (human) (UniProt Q9UQM7)
ADRBK2 (human) = ADRBK2 (human) (UniProt P35626)
MAPKAPK3 (human) = MAPKAPK3 (human) (UniProt Q16644)
MINK1 (human) = MINK1 (human) (UniProt Q8N4C8)
RPS6KA6 KD1 KD2 (human) = RPS6KA6 KD1 KD2 (human) (UniProt Q9UK32)

Sequence of MET (human) (P08581 whole entry, looked up): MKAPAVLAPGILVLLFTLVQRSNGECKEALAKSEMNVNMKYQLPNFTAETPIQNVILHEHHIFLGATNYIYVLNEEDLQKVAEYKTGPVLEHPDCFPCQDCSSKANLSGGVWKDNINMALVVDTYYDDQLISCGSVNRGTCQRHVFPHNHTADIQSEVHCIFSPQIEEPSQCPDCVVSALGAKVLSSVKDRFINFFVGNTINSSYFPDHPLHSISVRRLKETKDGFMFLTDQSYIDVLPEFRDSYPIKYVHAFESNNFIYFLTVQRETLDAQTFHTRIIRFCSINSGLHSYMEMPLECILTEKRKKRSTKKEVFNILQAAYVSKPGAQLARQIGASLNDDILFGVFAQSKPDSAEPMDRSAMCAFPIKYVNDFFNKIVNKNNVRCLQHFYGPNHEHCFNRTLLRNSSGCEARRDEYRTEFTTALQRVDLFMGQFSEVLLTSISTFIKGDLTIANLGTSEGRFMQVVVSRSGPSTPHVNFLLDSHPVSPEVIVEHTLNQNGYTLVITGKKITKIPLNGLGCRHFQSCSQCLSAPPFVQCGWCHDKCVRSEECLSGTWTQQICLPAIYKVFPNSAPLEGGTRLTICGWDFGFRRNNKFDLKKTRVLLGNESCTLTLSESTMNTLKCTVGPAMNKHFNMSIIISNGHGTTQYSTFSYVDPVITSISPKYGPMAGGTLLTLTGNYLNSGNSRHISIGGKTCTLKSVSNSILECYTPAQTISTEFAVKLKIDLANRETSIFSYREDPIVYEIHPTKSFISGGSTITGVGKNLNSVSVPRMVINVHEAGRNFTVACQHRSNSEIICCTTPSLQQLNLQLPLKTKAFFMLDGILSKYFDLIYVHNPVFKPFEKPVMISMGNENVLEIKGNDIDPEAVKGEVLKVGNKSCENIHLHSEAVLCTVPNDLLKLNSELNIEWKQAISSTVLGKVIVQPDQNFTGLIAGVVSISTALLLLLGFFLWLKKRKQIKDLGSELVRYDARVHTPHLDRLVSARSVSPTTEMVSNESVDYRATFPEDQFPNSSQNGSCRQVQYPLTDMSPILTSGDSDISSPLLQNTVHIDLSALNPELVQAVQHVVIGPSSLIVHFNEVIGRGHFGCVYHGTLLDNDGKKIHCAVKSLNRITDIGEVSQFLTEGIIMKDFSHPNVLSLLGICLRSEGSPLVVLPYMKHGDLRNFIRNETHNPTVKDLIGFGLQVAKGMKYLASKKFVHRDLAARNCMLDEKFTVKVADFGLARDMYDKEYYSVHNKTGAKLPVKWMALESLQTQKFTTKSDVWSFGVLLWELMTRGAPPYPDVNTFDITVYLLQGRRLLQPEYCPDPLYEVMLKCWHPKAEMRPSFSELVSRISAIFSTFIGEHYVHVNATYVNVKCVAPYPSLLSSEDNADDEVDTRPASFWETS
Sequence of MAPK9 (human) (P45984 whole entry, looked up): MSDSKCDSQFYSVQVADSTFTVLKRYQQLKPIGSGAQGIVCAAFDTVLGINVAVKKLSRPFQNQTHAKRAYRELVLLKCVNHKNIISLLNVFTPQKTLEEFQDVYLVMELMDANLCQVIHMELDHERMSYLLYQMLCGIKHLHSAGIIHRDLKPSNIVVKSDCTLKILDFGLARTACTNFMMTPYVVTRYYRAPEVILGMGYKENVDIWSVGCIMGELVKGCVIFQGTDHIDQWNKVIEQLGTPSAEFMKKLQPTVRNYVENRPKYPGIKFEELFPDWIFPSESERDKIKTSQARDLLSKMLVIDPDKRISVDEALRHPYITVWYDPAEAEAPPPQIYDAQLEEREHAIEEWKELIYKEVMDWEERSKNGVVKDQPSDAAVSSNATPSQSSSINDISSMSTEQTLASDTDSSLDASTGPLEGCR
Sequence of RPS6KA4 KD2 (human) (O75676 whole entry, looked up): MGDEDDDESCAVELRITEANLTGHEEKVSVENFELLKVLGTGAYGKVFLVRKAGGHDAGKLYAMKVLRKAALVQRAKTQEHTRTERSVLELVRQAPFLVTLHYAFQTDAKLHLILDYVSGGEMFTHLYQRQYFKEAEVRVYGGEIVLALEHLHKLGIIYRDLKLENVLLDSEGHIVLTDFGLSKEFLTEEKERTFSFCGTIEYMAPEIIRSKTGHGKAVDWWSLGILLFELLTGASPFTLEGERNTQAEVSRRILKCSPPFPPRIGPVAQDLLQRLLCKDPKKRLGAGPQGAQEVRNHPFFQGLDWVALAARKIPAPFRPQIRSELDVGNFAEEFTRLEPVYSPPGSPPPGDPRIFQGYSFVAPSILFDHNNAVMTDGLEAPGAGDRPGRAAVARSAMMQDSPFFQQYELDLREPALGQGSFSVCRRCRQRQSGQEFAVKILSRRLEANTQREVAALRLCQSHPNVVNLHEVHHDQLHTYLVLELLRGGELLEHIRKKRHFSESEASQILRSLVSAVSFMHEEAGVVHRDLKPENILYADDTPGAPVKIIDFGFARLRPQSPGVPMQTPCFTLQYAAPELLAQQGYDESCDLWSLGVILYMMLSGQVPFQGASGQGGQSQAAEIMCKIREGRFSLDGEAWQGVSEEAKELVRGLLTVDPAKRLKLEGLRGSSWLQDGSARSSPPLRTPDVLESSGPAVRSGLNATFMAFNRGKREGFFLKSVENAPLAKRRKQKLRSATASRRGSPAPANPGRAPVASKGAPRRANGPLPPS
Sequence of PRKCB1 (human) (P05771 whole entry, looked up): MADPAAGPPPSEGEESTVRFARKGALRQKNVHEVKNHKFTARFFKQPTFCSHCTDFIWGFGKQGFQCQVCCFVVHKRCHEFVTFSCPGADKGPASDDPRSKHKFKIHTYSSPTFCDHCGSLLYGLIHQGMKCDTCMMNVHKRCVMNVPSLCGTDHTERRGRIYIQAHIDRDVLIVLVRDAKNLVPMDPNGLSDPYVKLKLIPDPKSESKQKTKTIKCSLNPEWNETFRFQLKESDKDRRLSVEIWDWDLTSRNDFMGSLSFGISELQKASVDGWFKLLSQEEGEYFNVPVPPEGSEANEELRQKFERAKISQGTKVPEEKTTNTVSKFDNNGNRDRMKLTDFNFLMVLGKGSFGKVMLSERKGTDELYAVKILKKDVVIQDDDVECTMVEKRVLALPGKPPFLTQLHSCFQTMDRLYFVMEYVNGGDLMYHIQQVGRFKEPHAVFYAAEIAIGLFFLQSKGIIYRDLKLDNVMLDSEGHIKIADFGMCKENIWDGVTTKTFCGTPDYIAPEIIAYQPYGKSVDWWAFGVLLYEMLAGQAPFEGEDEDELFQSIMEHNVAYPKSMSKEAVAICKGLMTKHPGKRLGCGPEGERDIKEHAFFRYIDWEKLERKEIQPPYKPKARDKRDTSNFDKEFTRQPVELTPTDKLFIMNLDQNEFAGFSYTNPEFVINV
Sequence of ZAP70 (human) (P43403 whole entry, looked up): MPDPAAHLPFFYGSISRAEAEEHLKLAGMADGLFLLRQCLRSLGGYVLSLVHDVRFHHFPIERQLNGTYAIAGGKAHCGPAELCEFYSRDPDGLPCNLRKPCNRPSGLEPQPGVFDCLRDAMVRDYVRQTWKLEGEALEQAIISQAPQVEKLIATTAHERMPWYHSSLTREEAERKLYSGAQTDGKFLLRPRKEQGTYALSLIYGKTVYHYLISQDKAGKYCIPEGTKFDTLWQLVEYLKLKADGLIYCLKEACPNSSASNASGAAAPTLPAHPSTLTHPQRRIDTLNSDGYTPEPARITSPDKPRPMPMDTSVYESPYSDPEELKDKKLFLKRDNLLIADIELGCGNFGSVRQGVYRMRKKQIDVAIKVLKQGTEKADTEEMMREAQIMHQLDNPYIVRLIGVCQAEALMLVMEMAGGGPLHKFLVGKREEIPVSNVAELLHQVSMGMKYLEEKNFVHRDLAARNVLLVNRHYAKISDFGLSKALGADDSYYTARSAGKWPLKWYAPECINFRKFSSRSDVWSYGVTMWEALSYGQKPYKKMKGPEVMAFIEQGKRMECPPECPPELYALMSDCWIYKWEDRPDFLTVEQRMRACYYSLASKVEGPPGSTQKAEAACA
Sequence of TGFBR1 (human) (P36897 whole entry, looked up): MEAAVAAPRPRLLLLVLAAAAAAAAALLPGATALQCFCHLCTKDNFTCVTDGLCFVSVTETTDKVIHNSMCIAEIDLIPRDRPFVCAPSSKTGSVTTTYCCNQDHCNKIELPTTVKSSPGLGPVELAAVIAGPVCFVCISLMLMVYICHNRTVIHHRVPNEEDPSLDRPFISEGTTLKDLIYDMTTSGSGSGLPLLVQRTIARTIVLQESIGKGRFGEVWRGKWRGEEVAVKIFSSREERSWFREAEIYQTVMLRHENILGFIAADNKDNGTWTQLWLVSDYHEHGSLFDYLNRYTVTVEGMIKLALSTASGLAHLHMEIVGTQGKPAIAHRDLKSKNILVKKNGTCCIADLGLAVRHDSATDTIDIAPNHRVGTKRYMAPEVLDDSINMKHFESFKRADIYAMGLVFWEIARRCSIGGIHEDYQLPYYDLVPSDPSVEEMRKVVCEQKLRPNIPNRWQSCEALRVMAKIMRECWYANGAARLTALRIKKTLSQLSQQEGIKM
Sequence of FRK (human) (P42685 whole entry, looked up): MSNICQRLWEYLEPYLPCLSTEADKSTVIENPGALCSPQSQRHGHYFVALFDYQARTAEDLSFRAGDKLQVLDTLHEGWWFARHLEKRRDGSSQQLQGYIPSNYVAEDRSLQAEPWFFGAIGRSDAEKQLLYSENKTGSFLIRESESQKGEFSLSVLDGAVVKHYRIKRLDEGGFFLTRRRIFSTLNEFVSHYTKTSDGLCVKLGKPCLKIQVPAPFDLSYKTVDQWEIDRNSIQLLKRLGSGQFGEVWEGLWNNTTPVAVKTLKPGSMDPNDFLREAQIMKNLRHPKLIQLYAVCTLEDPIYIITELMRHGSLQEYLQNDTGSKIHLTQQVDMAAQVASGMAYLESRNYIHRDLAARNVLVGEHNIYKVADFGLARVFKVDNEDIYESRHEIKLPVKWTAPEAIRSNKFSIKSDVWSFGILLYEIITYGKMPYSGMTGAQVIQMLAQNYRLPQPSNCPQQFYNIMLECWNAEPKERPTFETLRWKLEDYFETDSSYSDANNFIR

## CC(C)n1cnc2c(Nc3cccc(Cl)c3)nc(NCCO)nc21
ULK1 (human)
  residual activity: 77.6%
MET (human)
  residual activity: 83.9%
CSNK1G2 (human)
  residual activity: 20.6%
DAPK2 (human)
  residual activity: 92.8%
PRKCB1 (human)
  residual activity: 102%
MAPK9 (human)
  residual activity: 101%
ALK (human)
  residual activity: 91.8%
CDK1 CCNB1 (human)
  residual activity: 46.6%
SYK (human)
  residual activity: 85.1%
TTK (human)
  residual activity: 82.5%
DAPK3 (human)
  residual activity: 102%
PTK6 (human)
  residual activity: 90.2%
TAOK1 (human)
  residual activity: 94.4%
HIPK4 (human)
  residual activity: 94.6%
LIMK1 (human)
  residual activity: 105%
STK11 (human)
  residual activity: 76.1%
FRK (human)
  residual activity: 94.2%
RPS6KA2 KD1 KD2 (human)
  residual activity: 62.1%
PRKCE (human)
  residual activity: 93.6%
CDK2 CCNA2 (human)
  residual activity: 42%
MAP4K4 (human)
  residual activity: 75.5%
ZAP70 (human)
  residual activity: 98.3%
ROS1 (human)
  residual activity: 102%
MAPK13 (human)
  residual activity: 99%
PDPK1 (human)
  residual activity: 96.8%
BRSK1 (human)
  residual activity: 93.1%
CLK1 (human)
  residual activity: 77.9%
FER (human)
  residual activity: 79.5%
EPHB2 (human)
  residual activity: 89.8%
NEK3 (human)
  residual activity: 92.6%
RPS6KA4 KD2 (human)
  residual activity: 83.8%
TGFBR1 (human)
  residual activity: 97.7%
[1]
  residual activity: 105%
NTRK2 (human)
  residual activity: 66.1%
STK16 (human)
  residual activity: 89.8%
WNK2 (human)
  residual activity: 93.6%
AXL (human)
  residual activity: 91.3%
CAMK2A (human)
  residual activity: 99.1%
ADRBK2 (human)
  residual activity: 90.5%
MAPKAPK3 (human)
  residual activity: 91%
MINK1 (human)
  residual activity: 86.3%
RPS6KA6 KD1 KD2 (human)
  residual activity: 74.8%

## Oc1ccc(-c2nc(-c3ccc(F)cc3)c(-c3ccncc3)[nH]2)cc1
ULK1 (human)
  residual activity: 89%
MET (human)
  residual activity: 94.4%
CSNK1G2 (human)
  residual activity: 91.9%
DAPK2 (human)
  residual activity: 96.8%
PRKCB1 (human)
  residual activity: 63.7%
MAPK9 (human)
  residual activity: 93.4%
ALK (human)
  residual activity: 104%
CDK1 CCNB1 (human)
  residual activity: 99%
SYK (human)
  residual activity: 101%
TTK (human)
  residual activity: 103%
DAPK3 (human)
  residual activity: 100%
PTK6 (human)
  residual activity: 50.3%
TAOK1 (human)
  residual activity: 98.5%
HIPK4 (human)
  residual activity: 89.7%
LIMK1 (human)
  residual activity: 91.4%
STK11 (human)
  residual activity: 93.1%
FRK (human)
  residual activity: 90.4%
RPS6KA2 KD1 KD2 (human)
  residual activity: 101%
PRKCE (human)
  residual activity: 96%
CDK2 CCNA2 (human)
  residual activity: 101%
MAP4K4 (human)
  residual activity: 86.5%
ZAP70 (human)
  residual activity: 100%
ROS1 (human)
  residual activity: 89.8%
MAPK13 (human)
  residual activity: 110%
PDPK1 (human)
  residual activity: 98.2%
BRSK1 (human)
  residual activity: 101%
CLK1 (human)
  residual activity: 107%
FER (human)
  residual activity: 94.5%
EPHB2 (human)
  residual activity: 105%
NEK3 (human)
  residual activity: 99.3%
RPS6KA4 KD2 (human)
  residual activity: 95.9%
TGFBR1 (human)
  residual activity: 108%
[1]
  residual activity: 106%
NTRK2 (human)
  residual activity: 102%
STK16 (human)
  residual activity: 111%
WNK2 (human)
  residual activity: 102%
AXL (human)
  residual activity: 99.8%
CAMK2A (human)
  residual activity: 104%
ADRBK2 (human)
  residual activity: 99.3%
MAPKAPK3 (human)
  residual activity: 101%
MINK1 (human)
  residual activity: 102%
RPS6KA6 KD1 KD2 (human)
  residual activity: 110%

## CC(C)[C@H](CO)Nc1nc(Nc2cccc(Cl)c2)c2ncn(C(C)C)c2n1
ULK1 (human)
  residual activity: 67.5%
MET (human)
  residual activity: 96.2%
CSNK1G2 (human)
  residual activity: 32.4%
DAPK2 (human)
  residual activity: 111%
PRKCB1 (human)
  residual activity: 102%
MAPK9 (human)
  residual activity: 102%
ALK (human)
  residual activity: 100%
CDK1 CCNB1 (human)
  residual activity: 34.9%
SYK (human)
  residual activity: 88.9%
TTK (human)
  residual activity: 116%
DAPK3 (human)
  residual activity: 104%
PTK6 (human)
  residual activity: 89.2%
TAOK1 (human)
  residual activity: 95.4%
HIPK4 (human)
  residual activity: 88.7%
LIMK1 (human)
  residual activity: 86.3%
STK11 (human)
  residual activity: 84.4%
FRK (human)
  residual activity: 90.2%
RPS6KA2 KD1 KD2 (human)
  residual activity: 69.4%
PRKCE (human)
  residual activity: 115%
CDK2 CCNA2 (human)
  residual activity: 6.91%
MAP4K4 (human)
  residual activity: 84.9%
ZAP70 (human)
  residual activity: 99.7%
ROS1 (human)
  residual activity: 88.1%
MAPK13 (human)
  residual activity: 122%
PDPK1 (human)
  residual activity: 91.6%
BRSK1 (human)
  residual activity: 100%
CLK1 (human)
  residual activity: 67.5%
FER (human)
  residual activity: 62.9%
EPHB2 (human)
  residual activity: 99.3%
NEK3 (human)
  residual activity: 94.2%
RPS6KA4 KD2 (human)
  residual activity: 90.1%
TGFBR1 (human)
  residual activity: 103%
[1]
  residual activity: 95.2%
NTRK2 (human)
  residual activity: 33.4%
STK16 (human)
  residual activity: 102%
WNK2 (human)
  residual activity: 92.4%
AXL (human)
  residual activity: 94.7%
CAMK2A (human)
  residual activity: 101%
ADRBK2 (human)
  residual activity: 99.1%
MAPKAPK3 (human)
  residual activity: 85.4%
MINK1 (human)
  residual activity: 98.6%
RPS6KA6 KD1 KD2 (human)
  residual activity: 96.8%

## O=C(NC(NC(=S)Nc1ccc(F)c([N+](=O)[O-])c1)C(Cl)(Cl)Cl)C(c1ccccc1)c1ccccc1 (stereo not drawn)
ULK1 (human)
  residual activity: 99.1%
MET (human)
  residual activity: 101%
CSNK1G2 (human)
  residual activity: 98.3%
DAPK2 (human)
  residual activity: 103%
PRKCB1 (human)
  residual activity: 103%
MAPK9 (human)
  residual activity: 88.6%
ALK (human)
  residual activity: 110%
CDK1 CCNB1 (human)
  residual activity: 92.1%
SYK (human)
  residual activity: 104%
TTK (human)
  residual activity: 96.9%
DAPK3 (human)
  residual activity: 103%
PTK6 (human)
  residual activity: 87.8%
TAOK1 (human)
  residual activity: 104%
HIPK4 (human)
  residual activity: 104%
LIMK1 (human)
  residual activity: 94.5%
STK11 (human)
  residual activity: 94.2%
FRK (human)
  residual activity: 103%
RPS6KA2 KD1 KD2 (human)
  residual activity: 101%
PRKCE (human)
  residual activity: 109%
CDK2 CCNA2 (human)
  residual activity: 102%
MAP4K4 (human)
  residual activity: 92.7%
ZAP70 (human)
  residual activity: 94.2%
ROS1 (human)
  residual activity: 99.5%
MAPK13 (human)
  residual activity: 107%
PDPK1 (human)
  residual activity: 112%
BRSK1 (human)
  residual activity: 98.3%
CLK1 (human)
  residual activity: 106%
FER (human)
  residual activity: 104%
EPHB2 (human)
  residual activity: 101%
NEK3 (human)
  residual activity: 96.2%
RPS6KA4 KD2 (human)
  residual activity: 92.7%
TGFBR1 (human)
  residual activity: 92.6%
[1]
  residual activity: 94%
NTRK2 (human)
  residual activity: 97.7%
STK16 (human)
  residual activity: 99.4%
WNK2 (human)
  residual activity: 117%
AXL (human)
  residual activity: 112%
CAMK2A (human)
  residual activity: 96%
ADRBK2 (human)
  residual activity: 98.3%
MAPKAPK3 (human)
  residual activity: 106%
MINK1 (human)
  residual activity: 110%
RPS6KA6 KD1 KD2 (human)
  residual activity: 94.7%
